Activity calls are given as the source filed them. No cut-off for these calls is given here.
Organism: Homo sapiens
Test: Cytotoxicity against human ER negative MCF10CA1a cells assessed as growth inhibition after 3 days by [3H]thymidine incorporation assay
Type: functional, cell-based
Conditions: tested as the 2H-labelled form

Structure (SMILES) | growth inhibition (GI)
C=C1/C(=C\C=C2/CCC[C@]3(C)[C@@H](C(CCCC(C)(C)O)CCCC(C)(C)O)CC[C@@H]23)C[C@@H](O)C[C@@H]1O | Active
CC(C)(O)CCCC(CCCC(C)(C)O)[C@H]1CC[C@H]2/C(=C/C=C3C[C@@H](O)C[C@H](O)C3)CCC[C@]12C | Active
